Results: US11639929B2, “Universal histidine-tag binding compounds and methods of use thereof as fluorescent probes and sensors” (YEDA RESEARCH AND DEVELOPMENT CO. LTD., priority 2014, dated 2023)

How the values were obtained:
His-Bcl-2 = molecular target: T1, His-Bcl-2 (Homo sapiens, UniProt P10415); test: Probing protein-protein interactions for Bcl-2 with the His-Bcl-2-5 complex; type: binding; details: complex 200 nM
T1 construct: purchased ProSpec-Tany TechnoGene Ltd. (Ness Ziona, Israel)
Procedure: Compounds 1-5 (50 μL, 10 μM) in phosphate buffer (4.1 mM, pH=7.3) were dispensed into a 384-well plate and fluorescence intensities were recorded with an excitation wavelength of 330 nm. His-Bcl-2 (final concentration, 200 nM) and Bax BH3 (final concentration, 1.6 μM) were subsequently added to each well and the fluorescence intensity values were recorded again. The emission values correspond to the maximal intensities recorded either at λem=530 nm or at λem=560 nm. Fluorescence was measured in triplicate. Data shown in FIG. 27 is the average of the triplicates and error bars represent standard deviation. Control experiments were performed in a similar manner (FIG. 28).
A mixture of compound 5 (200 nM) and His-Bcl-2 (200 nM) in PBS buffer (4.1 mM, pH=7.3) was dispensed into a 384-well microplate, and the fluorescence emission spectra were recorded. Various proteins (0.8 μM) and Bax BH3 peptide (0.8 μM) were added and the fluorescence emission was again recorded. Fluorescence measurements were performed in triplicate. The emission intensities before the addition of each protein were normalized to 100% (FIG. 27b).

His-CaM(Ca^+2) [1] = molecular target: T2, His-CaM(Ca^+2) (Mus musculus, UniProt P0DP26); test: Surface plasmon resonance on immobilized His-CaM with Ca2+; type: binding; details: SPR, Table 2, CaCl2 0.3 mM; read-out: Dissociation constant
T2 construct: purchased Israel Structural Proteomics Center (Weizmann Institute of Science)
Procedure: SPR experiments were performed to assess the dissociation constant between His-CaM and the compound 1 in the presence/absence of Ca^2+ ions and other ligands. His-CaM was diluted in 180 μL PBS buffer (4.1 mM, pH=7.3) and 20 μL sodium acetate (1 M, pH=3) to reach a final concentration of 20 μg/mL and then immobilized on a Biacore sensor chip CM5 through EDC/NHS chemistry. Flow cells were activated for 5 min by injecting 50 μL mixture of 50 mM NHS:200 mM EDC. Then 50 μL of His-CaM (20 μg/mL) was injected at a rate of 10 μL/min followed by injection of ethanolamine (1 M) to block the remaining surface-activated groups. Various analytes (Table 1) were injected in different concentrations, ranging from 0.1-2 μM for (20 μL/min, 80 μL injection with a delay of 180 s wash) (Table 1). Between consecutive analyte injections, the surface was regenerated with 2 mM NaOH (20 μL at 10 μL/min) followed by PBS buffer (60 μL at 10 μL/min). Non-derivatized dextran matrix flow cells served as reference cells. […] CaCl2 (0.3 mM) was pre-incubated with the analyte before injections. For the control compound C15 (entry 5), prior to each injection, the chip was washed with 20 μL EDTA (50 mM, 20 μL/min) followed by PBS buffer (20 μL at 20 μL/min) to remove any traces of Ni^2+. The data were globally fitted using BiaEvaluation software 3.2.

His-CaM(Ca^+2) [2] = molecular target: T2, His-CaM(Ca^+2); test: Screening assay with small molecules and peptide inhibitors using the His-CaM(Ca+2)-1 complex; details: test substance 1.6 μM; decrease indicates binding to the CaM surface
Procedure: A mixture of compound 1 (200 nM), His-CaM (400 nM), and CaCl2 (0.3 mM) in PBS buffer (4.1 mM, pH=7.3) was dispensed into a 384-well microplate, and fluorescence emission spectra were recorded. Then various drugs (1.6 μM) and peptides (1.6 μM) were added and the fluorescence emission was again recorded. Fluorescence measurements were performed in triplicate and the emission intensities before the addition of each drug were normalized to 100% (FIG. 24).

[3] = tested on: E. coli expressing His-OmpC; test: Decorating bacteria with oligonucleotides, fluorescence microscopy; type: cell-based; details: 500 nM with Ni(II)
Procedure: Transformed bacteria with the different OmpC constructs (OmpC or His-OmpC) were cultured to saturation in LB medium supplemented with 100 μg/ml of ampicillin at 30° C. 40 μl of the pre-cultured cells were then diluted into 4 ml of fresh LB medium supplemented with ampicillin and incubated until the OD600 reaches ˜0.6. Protein expression was then induced by the addition of 0.1% Rhamnose and 20 μM isopropyl-b-D-1-thiogalactopyranoside (IPTG) and cultures were allowed to grow at 30° C. for 18 h.
The bacterial cells (OmpC or His-OmpC) were collected by centrifugation at 6000 g for 4 min. The pellet was washed twice with PBS×1 buffer and resuspended in the same buffer to an OD600 of 0.3. To a 100 μl sample of the bacteria suspension, a preincubated sample of DNA (500 nM) and NiCl2 (2.5 μM) was added, and the cells were incubated at room temperature for 1 h. Then the bacterial sample were washed twice with PBS, resuspended in 100 μl PBS and placed on a glass-bottom dish (P35G-1.5-14-C; MatTek) precoated with poly-1-lysine (Sigma Aldrich) and left to adhere for 1 h. Finally, the wells were washed vigorously with PBS three times and imaged using an Olympus IX51 fluorescent microscope. The samples were imaged using 60× or 100× objective lenses. […]

T1 sequence (P10415 whole entry): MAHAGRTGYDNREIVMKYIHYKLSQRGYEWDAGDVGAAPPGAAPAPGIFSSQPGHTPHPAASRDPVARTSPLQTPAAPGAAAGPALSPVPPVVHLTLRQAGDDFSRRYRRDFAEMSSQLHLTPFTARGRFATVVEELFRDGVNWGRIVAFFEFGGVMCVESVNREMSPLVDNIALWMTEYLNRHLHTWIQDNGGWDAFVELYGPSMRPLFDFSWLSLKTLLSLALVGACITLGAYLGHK

| Compound | emission signal of the His-Bcl-2-5 complex after addition of protein or peptide (His-Bcl-2) | Kd (His-CaM(Ca^+2) [1]) [nM] | fluorescence emission of the His-CaM(Ca+2)-1 complex after addition of drug or peptide (His-CaM(Ca^+2) [2]) | fluorescent labeling of bacteria, fluorescence imaging [3] |
| --- | --- | --- | --- | --- |
| CC[C@H](C)[C@H](NC(=O)[C@H](Cc1ccccc1)NC(=O)[C@H](CC(N)=O)NC(=O)[C@H](CCCCN)NC(=O)[C@H](CCCCN)NC(=O)[C@H](Cc1c[nH]c2ccccc12)NC(=O)[C@H](CCCNC(=N)N)NC(=O)[C@H](CCCNC(=N)N)NC(=O)[C@@H](N)CCCCN)C(=O)N[C@@H](C)C(=O)N[C@H](C(=O)N[C@@H](CO)C(=O)N[C@@H](C)C(=O)N[C@@H](C)C(=O)N[C@@H](CC(N)=O)C(=O)N[C@@H](CCCNC(=N)N)C(=O)N[C@@H](Cc1ccccc1)C(=O)N[C@@H](CCCCN)C(=O)N[C@@H](CCCCN)C(=O)N[C@H](C(=O)N[C@@H](CO)C(=O)N[C@@H](CO)C(=O)N[C@@H](CO)C(=O)NCC(=O)N[C@@H](C)C(=O)N[C@@H](CC(C)C)C(=O)O)[C@@H](C)CC)C(C)C [Compound M13] | did not change the emission signal | 8.8 |  |  |
| Clc1ccc(C(c2ccc(Cl)cc2)n2cc[n+](CC(OCc3ccc(Cl)cc3Cl)c3ccc(Cl)cc3Cl)c2)cc1 (stereo not shown) [calmidazolium] |  |  | decrease in the fluorescence emission |  |
| Bax-BH3: amphipathic alpha helical peptide of Bax, Bax BH3 peptide (55-74) wild type (STKKLSECLKRIGDELDSNM) | decreased |  |  |  |
| Cy5-labeled ODN: Cy5-labeled ODN lacking a tri-NTA group, negative control (DNA GCGGCGAGGCAGC; Cy5 label, position not given here) |  |  |  | No fluorescence |
| Mastoparan | did not change the emission signal |  | decrease in the fluorescence emission |  |
